From ChEMBL document CHEMBL1201862, “PubChem BioAssay data set” (2004)
Activity calls are given as the source filed them.

Columns and labels:
[1] = target: Kallikrein-7 (Homo sapiens, UniProt P49862); assay: Fluorescence Intensity-based biochemical primary high throughput dose response assay to identify activators of kallikrein-7 (K7) zymogen.
[2] = target: 1-phosphatidylinositol 4,5-bisphosphate phosphodiesterase beta-3 (Homo sapiens, UniProt Q01970); assay: Fluorescence-based biochemical high throughput dose response assay to identify inhibitors of phospholipase C isozymes (PLC-B3).
Chain of 1-phosphatidylinositol 4,5-bisphosphate phosphodiesterase beta-3 (Q01970 whole entry): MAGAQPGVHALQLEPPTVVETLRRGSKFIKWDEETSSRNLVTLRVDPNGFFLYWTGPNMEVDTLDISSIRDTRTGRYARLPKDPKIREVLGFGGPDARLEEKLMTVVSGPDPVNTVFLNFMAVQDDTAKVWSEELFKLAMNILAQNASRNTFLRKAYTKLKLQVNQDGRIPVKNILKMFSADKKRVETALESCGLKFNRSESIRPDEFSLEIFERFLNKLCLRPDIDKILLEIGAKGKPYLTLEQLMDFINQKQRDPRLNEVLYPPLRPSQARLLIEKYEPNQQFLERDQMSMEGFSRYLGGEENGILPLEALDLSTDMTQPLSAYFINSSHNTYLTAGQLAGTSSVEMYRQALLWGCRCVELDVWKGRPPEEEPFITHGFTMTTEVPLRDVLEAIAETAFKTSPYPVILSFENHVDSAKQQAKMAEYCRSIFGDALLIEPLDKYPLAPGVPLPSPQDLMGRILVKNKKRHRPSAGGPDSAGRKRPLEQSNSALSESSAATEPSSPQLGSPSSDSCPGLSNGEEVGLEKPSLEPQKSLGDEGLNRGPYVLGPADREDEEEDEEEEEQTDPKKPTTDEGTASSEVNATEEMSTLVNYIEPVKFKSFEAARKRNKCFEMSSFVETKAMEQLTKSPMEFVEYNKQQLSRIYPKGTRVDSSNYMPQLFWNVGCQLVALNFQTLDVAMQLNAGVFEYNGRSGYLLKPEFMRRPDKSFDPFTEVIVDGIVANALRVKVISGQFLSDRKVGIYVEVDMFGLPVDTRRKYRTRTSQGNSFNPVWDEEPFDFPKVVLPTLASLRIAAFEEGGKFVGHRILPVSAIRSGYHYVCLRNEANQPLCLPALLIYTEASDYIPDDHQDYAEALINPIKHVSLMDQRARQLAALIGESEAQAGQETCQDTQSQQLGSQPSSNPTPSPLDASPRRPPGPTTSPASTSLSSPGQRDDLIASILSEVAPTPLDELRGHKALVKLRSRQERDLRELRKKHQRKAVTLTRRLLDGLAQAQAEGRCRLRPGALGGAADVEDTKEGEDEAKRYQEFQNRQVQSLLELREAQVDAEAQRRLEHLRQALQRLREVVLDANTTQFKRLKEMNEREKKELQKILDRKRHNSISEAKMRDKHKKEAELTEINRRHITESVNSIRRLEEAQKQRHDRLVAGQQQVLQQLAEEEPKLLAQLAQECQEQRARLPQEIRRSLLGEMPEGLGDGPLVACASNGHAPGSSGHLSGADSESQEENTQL

[3] = target: 1-phosphatidylinositol 4,5-bisphosphate phosphodiesterase gamma-1 (Homo sapiens, UniProt P19174); assay: Counterscreen for inhibitors of phospholipase C isozymes (PLC-B3): Fluorescence-based biochemical high throughput dose response assay to identify inhibitors of phospholipase C isozymes (PLC-gamma1).
Chain of 1-phosphatidylinositol 4,5-bisphosphate phosphodiesterase gamma-1 (P19174 whole entry): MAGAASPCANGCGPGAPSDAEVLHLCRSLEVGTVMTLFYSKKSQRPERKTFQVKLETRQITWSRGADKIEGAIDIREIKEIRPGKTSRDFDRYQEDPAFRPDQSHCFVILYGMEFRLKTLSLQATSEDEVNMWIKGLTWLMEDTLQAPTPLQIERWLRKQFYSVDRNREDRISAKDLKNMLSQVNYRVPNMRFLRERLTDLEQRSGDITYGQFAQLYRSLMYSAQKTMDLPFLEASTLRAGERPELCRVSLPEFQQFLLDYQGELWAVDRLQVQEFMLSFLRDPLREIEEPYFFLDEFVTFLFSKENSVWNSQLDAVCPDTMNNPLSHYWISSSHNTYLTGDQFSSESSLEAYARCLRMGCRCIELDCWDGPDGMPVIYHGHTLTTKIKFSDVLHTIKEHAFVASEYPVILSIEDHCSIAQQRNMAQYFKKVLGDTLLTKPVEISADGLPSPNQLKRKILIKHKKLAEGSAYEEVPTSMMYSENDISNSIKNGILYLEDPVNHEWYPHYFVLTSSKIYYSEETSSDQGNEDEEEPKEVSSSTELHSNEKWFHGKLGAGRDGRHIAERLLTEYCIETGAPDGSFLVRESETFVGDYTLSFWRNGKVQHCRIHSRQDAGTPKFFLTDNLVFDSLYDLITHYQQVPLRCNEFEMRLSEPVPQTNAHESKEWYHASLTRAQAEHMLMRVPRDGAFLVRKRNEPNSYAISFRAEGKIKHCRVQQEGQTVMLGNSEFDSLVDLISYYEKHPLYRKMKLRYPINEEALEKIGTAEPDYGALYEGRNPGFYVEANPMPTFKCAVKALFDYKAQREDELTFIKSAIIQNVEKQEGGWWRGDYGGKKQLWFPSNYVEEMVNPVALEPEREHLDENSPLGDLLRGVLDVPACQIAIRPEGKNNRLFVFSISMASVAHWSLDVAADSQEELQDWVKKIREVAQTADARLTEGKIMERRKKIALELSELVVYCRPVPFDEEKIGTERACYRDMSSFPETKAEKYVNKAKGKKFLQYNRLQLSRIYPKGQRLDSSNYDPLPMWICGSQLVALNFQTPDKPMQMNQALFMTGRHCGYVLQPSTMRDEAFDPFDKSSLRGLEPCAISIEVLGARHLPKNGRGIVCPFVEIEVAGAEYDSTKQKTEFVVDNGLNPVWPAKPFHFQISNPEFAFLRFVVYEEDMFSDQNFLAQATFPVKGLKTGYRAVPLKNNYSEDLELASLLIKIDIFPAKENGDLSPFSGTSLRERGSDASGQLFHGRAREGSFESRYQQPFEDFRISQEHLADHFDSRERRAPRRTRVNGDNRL

[4] = target: T1, Histone-lysine N-methyltransferase NSD2 (Homo sapiens, UniProt O96028); type: biochemical
T1 sequence (O96028 whole entry): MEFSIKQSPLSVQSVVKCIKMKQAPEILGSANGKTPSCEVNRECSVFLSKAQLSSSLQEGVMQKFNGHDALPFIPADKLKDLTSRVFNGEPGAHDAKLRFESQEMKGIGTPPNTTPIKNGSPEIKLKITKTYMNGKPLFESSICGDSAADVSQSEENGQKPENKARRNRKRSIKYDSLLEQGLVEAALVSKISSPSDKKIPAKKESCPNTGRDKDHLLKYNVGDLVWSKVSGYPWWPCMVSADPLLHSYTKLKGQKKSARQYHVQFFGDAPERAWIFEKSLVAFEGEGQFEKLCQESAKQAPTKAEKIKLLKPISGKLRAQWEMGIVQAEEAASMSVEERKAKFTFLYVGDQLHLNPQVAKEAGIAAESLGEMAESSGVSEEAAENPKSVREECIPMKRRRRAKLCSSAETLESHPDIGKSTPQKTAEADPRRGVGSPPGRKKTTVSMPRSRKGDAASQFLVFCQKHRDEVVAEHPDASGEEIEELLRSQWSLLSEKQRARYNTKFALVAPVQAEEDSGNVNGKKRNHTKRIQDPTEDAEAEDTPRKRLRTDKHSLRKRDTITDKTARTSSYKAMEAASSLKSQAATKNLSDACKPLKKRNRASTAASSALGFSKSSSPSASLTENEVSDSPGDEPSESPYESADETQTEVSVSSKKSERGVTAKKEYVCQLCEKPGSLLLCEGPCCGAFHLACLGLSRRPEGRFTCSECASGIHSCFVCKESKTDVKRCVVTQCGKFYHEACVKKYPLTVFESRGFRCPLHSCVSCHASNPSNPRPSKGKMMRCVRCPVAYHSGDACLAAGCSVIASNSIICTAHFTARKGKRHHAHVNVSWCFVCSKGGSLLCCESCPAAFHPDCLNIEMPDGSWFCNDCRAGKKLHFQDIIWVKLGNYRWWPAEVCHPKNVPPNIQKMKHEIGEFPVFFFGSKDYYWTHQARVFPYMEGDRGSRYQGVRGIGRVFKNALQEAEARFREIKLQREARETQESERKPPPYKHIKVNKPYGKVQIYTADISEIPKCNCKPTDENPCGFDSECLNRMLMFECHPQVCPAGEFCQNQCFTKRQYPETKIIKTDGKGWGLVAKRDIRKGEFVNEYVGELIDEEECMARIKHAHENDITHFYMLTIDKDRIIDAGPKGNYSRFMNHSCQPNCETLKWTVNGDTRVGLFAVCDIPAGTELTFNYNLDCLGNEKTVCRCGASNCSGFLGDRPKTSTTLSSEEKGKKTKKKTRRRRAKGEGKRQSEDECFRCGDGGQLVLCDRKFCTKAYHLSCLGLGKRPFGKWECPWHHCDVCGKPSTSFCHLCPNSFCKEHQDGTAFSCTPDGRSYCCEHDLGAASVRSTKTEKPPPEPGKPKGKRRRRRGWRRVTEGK

[5] = viability loss in HeLa cells – cytotoxicity control for MgcRacGAP inhibitor project, dose response (AID 624300); type: functional
[6] = target: T2, DNA repair protein RAD52 homolog (Homo sapiens, UniProt P43351); type: functional, biochemical
T2 sequence (P43351 whole entry): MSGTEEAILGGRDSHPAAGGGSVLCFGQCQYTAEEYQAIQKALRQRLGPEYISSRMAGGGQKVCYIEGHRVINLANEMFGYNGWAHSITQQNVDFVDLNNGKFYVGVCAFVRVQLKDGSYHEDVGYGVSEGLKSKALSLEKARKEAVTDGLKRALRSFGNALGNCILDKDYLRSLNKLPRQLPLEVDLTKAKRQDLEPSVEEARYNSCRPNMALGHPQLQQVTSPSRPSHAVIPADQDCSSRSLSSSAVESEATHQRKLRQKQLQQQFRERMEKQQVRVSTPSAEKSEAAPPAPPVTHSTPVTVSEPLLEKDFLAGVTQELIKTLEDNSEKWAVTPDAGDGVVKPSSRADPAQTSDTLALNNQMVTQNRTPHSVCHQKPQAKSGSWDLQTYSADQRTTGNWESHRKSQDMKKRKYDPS

[7] = cells; type: functional, cell-based; conditions: HEK-CNG
[8] = target: Matrix metalloproteinase-14 (Homo sapiens, UniProt P50281); assay: Dose Response confirmation of uHTS hits for a small molecule inhibitors of MT1-MMP activation in a fluorescence assay set 1.; type: functional
[9] = HGIII-sPLA2 enzyme inhibition potency – biochemical, QFRET, IC50, dose response (AID 743457);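 also: green fluorescence rise as the enzyme cleaves BODIPY PC-A2 in liposomes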
[10] = target: T3, Rac GTPase-activating protein 1 (Homo sapiens, UniProt Q9H0H5); assay: blockers of MgcRacGAP-driven Rac1 GTP hydrolysis – biochemical, ADP Hunter fluorescence, primary and confirmatory, confirmation (AID 624330); type: functional
T3 sequence (Q9H0H5 whole entry): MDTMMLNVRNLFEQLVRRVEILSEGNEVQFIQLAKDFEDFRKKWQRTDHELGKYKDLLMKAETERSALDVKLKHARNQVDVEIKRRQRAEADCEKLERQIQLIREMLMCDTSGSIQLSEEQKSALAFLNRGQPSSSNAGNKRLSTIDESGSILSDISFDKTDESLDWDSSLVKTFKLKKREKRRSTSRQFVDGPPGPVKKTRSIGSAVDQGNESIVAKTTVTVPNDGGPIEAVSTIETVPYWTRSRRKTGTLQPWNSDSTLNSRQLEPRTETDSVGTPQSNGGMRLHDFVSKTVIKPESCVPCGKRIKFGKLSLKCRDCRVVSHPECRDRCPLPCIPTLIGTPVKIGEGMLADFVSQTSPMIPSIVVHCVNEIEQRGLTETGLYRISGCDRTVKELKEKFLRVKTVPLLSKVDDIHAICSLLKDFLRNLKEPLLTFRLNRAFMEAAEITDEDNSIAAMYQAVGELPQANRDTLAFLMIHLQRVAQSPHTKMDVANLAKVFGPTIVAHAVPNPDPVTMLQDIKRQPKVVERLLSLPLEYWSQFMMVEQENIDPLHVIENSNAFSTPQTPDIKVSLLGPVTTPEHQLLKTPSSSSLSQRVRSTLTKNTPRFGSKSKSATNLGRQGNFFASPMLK

[11] = target: Nonstructural protein 1 (Influenza A virus, UniProt Q194T2); type: functional, Influenza A virus (A/California/07/2009(H1N1))
Chain of Nonstructural protein 1 (Q194T2 whole entry): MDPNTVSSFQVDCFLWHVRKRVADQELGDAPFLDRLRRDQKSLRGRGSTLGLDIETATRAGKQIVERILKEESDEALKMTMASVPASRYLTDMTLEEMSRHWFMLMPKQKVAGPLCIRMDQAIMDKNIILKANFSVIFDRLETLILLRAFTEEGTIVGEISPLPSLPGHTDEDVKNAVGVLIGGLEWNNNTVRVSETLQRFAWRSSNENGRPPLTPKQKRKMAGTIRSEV

[12] = target: T4, Galanin receptor type 3 (Homo sapiens, UniProt O60755); assay: Fluorescence-based cell-based primary high throughput dose response assay to identify antagonists of the Galanin Receptor 3 (GalR3).; type: functional
T4 sequence (O60755 whole entry): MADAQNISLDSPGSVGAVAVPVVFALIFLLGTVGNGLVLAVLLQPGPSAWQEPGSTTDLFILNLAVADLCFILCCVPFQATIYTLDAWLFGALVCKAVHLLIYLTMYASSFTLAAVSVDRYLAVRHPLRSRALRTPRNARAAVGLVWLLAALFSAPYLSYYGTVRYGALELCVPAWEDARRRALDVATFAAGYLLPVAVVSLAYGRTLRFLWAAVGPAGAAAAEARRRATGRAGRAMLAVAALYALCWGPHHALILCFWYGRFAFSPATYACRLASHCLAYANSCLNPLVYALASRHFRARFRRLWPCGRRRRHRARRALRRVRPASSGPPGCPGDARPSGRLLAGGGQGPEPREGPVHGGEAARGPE

[13] = loss of viability in HepG2 cells – cell-based, CellTiter-Glo, cherry-picked, cytotoxicity control for Shn3 inhibitor project, dose response (AID 624134); type: functional
[14] = target: COUP transcription factor 2 (Homo sapiens, UniProt P24468); assay: Luminescence-based cell-based high throughput dose response assay to identify inhibitors of COUP-TFII (NR2F2).; type: functional;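 also: HEK293 cells transiently cotransfected with COUP-TFII expression vector and reporter; luciferase reporter luminescence driven by COUP-TFII from the pX2-168 reporter plasmid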
Chain of COUP transcription factor 2 (P24468 whole entry): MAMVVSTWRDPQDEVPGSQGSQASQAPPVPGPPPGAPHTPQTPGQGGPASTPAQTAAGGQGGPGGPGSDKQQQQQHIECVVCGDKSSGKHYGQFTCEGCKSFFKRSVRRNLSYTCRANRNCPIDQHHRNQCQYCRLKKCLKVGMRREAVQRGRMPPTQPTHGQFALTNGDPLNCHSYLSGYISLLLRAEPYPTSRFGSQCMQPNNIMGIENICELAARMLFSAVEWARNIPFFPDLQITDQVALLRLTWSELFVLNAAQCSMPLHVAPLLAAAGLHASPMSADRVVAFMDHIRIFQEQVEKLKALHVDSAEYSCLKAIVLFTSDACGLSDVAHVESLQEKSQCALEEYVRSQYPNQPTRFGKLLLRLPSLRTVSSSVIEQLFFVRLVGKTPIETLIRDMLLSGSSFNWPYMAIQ

[15] = reduction of Shn3 3'UTR-driven luciferase in osteoblasts – cell-based, Clone20 osteoblasts, firefly luciferase, cherry-picked, dose response (AID 624132); type: functional;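 also: firefly luciferase luminescence from reporter carrying the Shn3 3'UTR in osteoblasts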
[16] = non-specific 3'UTR reporter inhibition in Clone20-Shn3RL – cell-based, Renilla luciferase, cherry-picked, counter-screen for Shn3 inhibitor project, dose response (AID 624133); type: functional
[17] = activation of miR-122 Renilla sensor silencing – cell-based, Huh7 psiCHECK-miR122, Renilla luciferase, cherry-picked, dose response (AID 651956); type: functional;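 also: huh7 hepatoma cells stably carrying a psiCHECK-2 miR-122 sensor plasmid; renilla luciferase signal reporting endogenous miR-122 activity after 48 h compound exposure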
[18] = general mammalian cell viability loss – activator set, cherry-pick, cytotoxicity control for miR-122 modulator project, dose response (AID 720690); type: functional, cell-based;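 also: HEK293T human cells scored for general mammalian cytotoxicity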
[19] = general mammalian cell viability loss – inhibitor set, cherry-pick, set 2, cytotoxicity control for miR-122 modulator project, dose response (AID 720697); type: functional, cell-based
[20] = target: Melanocortin receptor 4 (Homo sapiens, UniProt P32245); type: functional, cell-based;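 also: Cell-based assay with luminescence read-out, confirmatory dose-response testing for agonist activity of biased ligands at MC4R; human U2OS cells with tagged receptor and beta-arrestin; potency of agonists that increase receptor coupling to beta-arrestin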
Chain of Melanocortin receptor 4 (P32245 whole entry): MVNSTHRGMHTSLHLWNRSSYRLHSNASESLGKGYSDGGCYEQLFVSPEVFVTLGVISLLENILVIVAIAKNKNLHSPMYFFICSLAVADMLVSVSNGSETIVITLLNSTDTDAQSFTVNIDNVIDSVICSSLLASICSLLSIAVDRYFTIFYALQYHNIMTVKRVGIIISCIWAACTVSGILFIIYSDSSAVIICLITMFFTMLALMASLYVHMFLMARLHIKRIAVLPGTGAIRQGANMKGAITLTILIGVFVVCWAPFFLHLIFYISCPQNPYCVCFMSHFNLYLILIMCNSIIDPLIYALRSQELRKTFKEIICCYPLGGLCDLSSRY

[21] = OVCAR8 cell viability loss – plate reader, dry powder samples, PAX8 project, dose response (AID 743197); type: functional, cell-based; conditions: OVCAR-8
[22] = target: Paired box protein Pax-8 (Homo sapiens, UniProt Q06710); assay: PAX8 transcriptional activity inhibition in RMG-I – RMG-I cells, luciferase, cherry-pick, dose response (AID 687027); type: functional, cell-based;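 also: luciferase reporter driven by Pax8 target thyroperoxidase promoter measured by SteadyGlo luminescence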
Chain of Paired box protein Pax-8 (Q06710 whole entry): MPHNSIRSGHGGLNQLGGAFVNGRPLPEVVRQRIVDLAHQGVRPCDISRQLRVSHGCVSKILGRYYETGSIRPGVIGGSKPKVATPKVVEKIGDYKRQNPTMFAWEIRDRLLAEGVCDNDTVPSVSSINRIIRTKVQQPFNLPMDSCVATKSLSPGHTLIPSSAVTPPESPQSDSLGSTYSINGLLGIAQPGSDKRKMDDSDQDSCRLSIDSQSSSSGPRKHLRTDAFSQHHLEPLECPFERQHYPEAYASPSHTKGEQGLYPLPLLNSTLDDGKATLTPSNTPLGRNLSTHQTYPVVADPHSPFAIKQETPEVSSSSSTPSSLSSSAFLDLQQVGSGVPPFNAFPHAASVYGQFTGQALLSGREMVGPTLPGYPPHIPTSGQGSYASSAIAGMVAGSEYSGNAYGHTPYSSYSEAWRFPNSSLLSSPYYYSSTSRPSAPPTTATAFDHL

[23] = toxicity toward immortalized ovarian surface epithelium – cell-based, plate reader, dry powder samples, cytotoxicity control for PAX8 inhibitor project, dose response (AID 743045); type: functional
[24] = OVCAR-3 cell viability loss – plate reader, dry powder samples, PAX8 inhibitor project, dose response (AID 743044); type: functional, cell-based
[25] = cytotoxicity toward Colo320 cells – cell-based, CellTiter-Glo luminescence, IC50, dose response (AID 1117334); type: functional; conditions: COLO 320
[26] = Reduced DLD-1 viability, concentration-response, CellTiter-Glo luminescence (AID 1117352); type: functional
[27] = cytotoxicity toward HT-29 cells – cell-based, CellTiter-Glo luminescence, IC50, dose response (AID 1117330); type: functional
[28] = RKO cell viability reduction, dose response, CellTiter-Glo luminescence (AID 1117322); type: functional
[29] = cytotoxicity toward HCT116 cells – cell-based, CellTiter-Glo luminescence, IC50, dose response (AID 1117332); type: functional; conditions: HCT-116
[30] = SNU-C1 cell viability reduction, dose response, CellTiter-Glo luminescence (AID 1117323); type: functional, cell-based
[31] = CellTiter-Glo luminescence survival assay, SW480 colon tumor line, concentration-response curve, half-maximal inhibitory concentration (AID 1117338); type: functional

Chain of Kallikrein-7 (P49862 whole entry): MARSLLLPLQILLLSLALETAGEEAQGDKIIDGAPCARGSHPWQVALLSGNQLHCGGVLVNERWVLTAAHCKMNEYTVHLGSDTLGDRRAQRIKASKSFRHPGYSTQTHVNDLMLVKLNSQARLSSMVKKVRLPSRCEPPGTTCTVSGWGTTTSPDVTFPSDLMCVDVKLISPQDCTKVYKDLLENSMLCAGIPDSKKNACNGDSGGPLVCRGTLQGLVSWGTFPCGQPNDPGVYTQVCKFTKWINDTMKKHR

Which EC50 [1] does the source give for Cc1ccc2nc(NC(=O)c3ccc4ncsc4c3)sc2c1 here?
Its EC50 is 20.8 µM (inactive).

For CC1=C(C(=O)OCc2ccc([N+](=O)[O-])cc2)N2C(=O)C(NC(=O)Cc3ccccc3)C2SC1 (centres undefined), which IC50 [2] is on record?
Its IC50 is > 122 µM (inactive).

And the IC50 [3]?
Its IC50 is 30.8 µM (inactive).

With CN(C)c1ccc(C=c2c3ccccc3n3c2c2c([n+]3C)CCCC2)cc1 as the compound, how does the AC50 [4] read?
Its AC50 is 7.63 µM (active).

And the CC50 [5]?
The CC50 was 16.9 µM (active).

And the AC50 [6]?
The AC50 was 0.914 µM (active).

And the EC50 [7]?
Its EC50 is > 29.9 µM (inactive).

And the IC50 [8]?
Its IC50 is > 80 µM (inactive).

And the IC50 [9]?
Its IC50 is 71.1 µM (inactive).

And the IC50 [10]?
The IC50 was 38.3 µM (active).

And the IC50 [11]?
The IC50 was 11 µM (active).

And the IC50 [12]?
Its IC50 is 1.31 µM (active).

With COc1ccc(CNC(=O)c2cccc3c(-c4cccnc4)coc23)cc1OC as the compound, how does the AC50 [13] read?
The AC50 was 1.66 µM (active).

And the IC50 [14]?
Its IC50 is 1.47 µM (active).

And the EC50 [7]?
Its EC50 is > 29.9 µM (inactive).

And the AC50 [15]?
The AC50 was 0.9 µM (active).

What about the AC50 [16] of the same compound?
The AC50 was 2.29 µM (active).

And the IC50 [12]?
Its IC50 is 0.126 µM (active).

Which AC50 [17] does the source give for CCN1CCN(Cc2ccc(NC(=O)c3cc(NC(=O)c4cc5cccc(OC)c5o4)cc(OC)c3)cc2C(F)(F)F)CC1 here?
Its AC50 is 12.1 µM (active).

What about the AC50 [18] of the same compound?
The AC50 was 8.76 µM (active).

What about the AC50 [19] of the same compound?
The AC50 was 4.28 µM (active).

What about the EC50 [20] of the same compound?
Its EC50 is > 89.2 µM (inactive).

What about the AC50 [15] of the same compound?
Its AC50 is 9.77 µM (active).

What does the source list for COc1ccc(S(=O)(=O)Nc2ccc3c(c2)C(=O)N([C@H](C)CO)C[C@H](C)[C@H](CN(C)Cc2ccc(C(F)(F)F)cc2)OCCCC[C@H](C)O3)cc1?
AC50 [21]: 31.6 µM (active); AC50 [22]: 9.51 µM (active); AC50 [23]: 50.7 µM (active); AC50 [24]: 22.9 µM (active)

With O=C(O)c1ccccc1OP(=O)(O)O [FOSFOSAL] as the compound, how does the IC50 [25] read?
The IC50 was > 20 µM (inactive).

What about the IC50 [26] of the same compound?
Its IC50 is > 20 µM (inactive).

And the IC50 [27]?
The IC50 was > 20 µM (inactive).

And the IC50 [28]?
Its IC50 is > 20 µM (inactive).

What about the IC50 [29] of the same compound?
The IC50 was > 20 µM (inactive).

What about the IC50 [30] of the same compound?
Its IC50 is > 20 µM (inactive).

And the IC50 [31]?
The IC50 was > 20 µM (inactive).
